Our source for the T/C values is PubChem BioAssay AID248 (DTP/NCI, 2004).

Values joined by “and” are separate entries in the source; they are usually repeats but may differ in a detail not shown here. Equal values may be shown once. Toxic doses and inconclusive results are not listed.

The subject of this assay is L1210 leukemia ip in BDF1 mice, survival T/C. Put plainly: NCI In Vivo Anticancer Drug Screen. Data for tumor model L1210 Leukemia (intraperitoneal) in B6D2F1 (BDF1) mice. The following applies: endpoint: mean survival time, higher = longer survival. A digest of the protocol:
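Each compound was tested against a transplantable tumor grown in mice. The endpoint was survival, with treated animals benchmarked against vehicle controls as a simple ratio.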

Where [1] appears, read: dose: 100.0 mg/kg/injection, schedule: Q04DX002 (ip), vehicle: saline.
Setting [2] is: dose: 200.0 mg/kg/injection, schedule: Q04DX002 (ip), vehicle: saline.
Where [3] appears, read: dose: 400.0 mg/kg/injection, schedule: Q04DX002 (ip), vehicle: saline.
Setting [4] is: dose: 100.0 mg/kg/injection, schedule: Q01DX009 (ip), vehicle: saline with Tween-80.
[5] abbreviates: dose: 100.0 mg/kg/injection, schedule: Q04DX003 (ip), vehicle: saline with Tween-80.
Setting [6] is: dose: 200.0 mg/kg/injection, schedule: Q01DX009 (ip), vehicle: saline with Tween-80.
Where [7] appears, read: dose: 200.0 mg/kg/injection, schedule: Q04DX003 (ip), vehicle: saline with Tween-80.
Where [8] appears, read: dose: 400.0 mg/kg/injection, schedule: Q01DX009 (ip), vehicle: saline with Tween-80.
Where [9] appears, read: dose: 50.0 mg/kg/injection, schedule: Q01DX009 (ip), vehicle: Klucel (hydroxypropylcellulose) (HPC).
[10] abbreviates: dose: 100.0 mg/kg/injection, schedule: Q01DX009 (ip), vehicle: Klucel (hydroxypropylcellulose) (HPC).
The mark [11] stands for this setting: dose: 200.0 mg/kg/injection, schedule: Q01DX009 (ip), vehicle: Klucel (hydroxypropylcellulose) (HPC).
[12] abbreviates: dose: 100.0 mg/kg/injection, schedule: Q04DX003 (ip), vehicle: Klucel (hydroxypropylcellulose) (HPC).
The mark [13] stands for this setting: dose: 200.0 mg/kg/injection, schedule: Q04DX003 (ip), vehicle: Klucel (hydroxypropylcellulose) (HPC).

Take `CCCCSC(C)=N`: the T/C runs as follows: under setting [1], 97 % of control; under setting [2], 105 % of control; under setting [3], 97 % of control.
Consider `COc1cc2c(cc1C(C)C)CCC1C(C)(C#N)CCCC21C` (centres undefined), for which the T/C by setting is: under setting [4], 96 % of control; under setting [5], 100 % of control; under setting [6], 89 % of control; under setting [7], 96 % of control; under setting [8], 92 % of control; (dose: 400.0 mg/kg/injection, schedule: Q04DX003 (ip), vehicle: saline with Tween-80) 100 % of control.
For `O=C(Nc1ccccc1CSc1nc2nc[nH]c(=O)c2[nH]1)c1ccc(S(=O)(=O)F)cc1`, the T/C reads like this: (dose: 25.0 mg/kg/injection, schedule: Q01DX001 (ip), vehicle: Klucel (hydroxypropylcellulose) (HPC)) 108 % of control; (dose: 50.0 mg/kg/injection, schedule: Q01DX001 (ip), vehicle: Klucel (hydroxypropylcellulose) (HPC)) 111 % of control; (dose: 100.0 mg/kg/injection, schedule: Q01DX001 (ip), vehicle: Klucel (hydroxypropylcellulose) (HPC)) 114 % of control.
`CC1(C)CC(C)(c2ccc(O)cc2)Oc2ccccc21` (centres undefined): the T/C runs as follows: under setting [5], 93 % of control; under setting [7], 89 % of control.
With `Cc1ccc2c(C)c3c(ccc4ccccc43)c[n+]2c1`, the T/C is, setting by setting: (dose: 0.36 mg/kg/injection, schedule: Q01DX015 (ip), vehicle: saline) 110 % of control; (dose: 0.55 mg/kg/injection, schedule: Q01DX015 (ip), vehicle: saline) 104 % of control; (dose: 0.83 mg/kg/injection, schedule: Q01DX015 (ip), vehicle: saline) 110 % of control; (dose: 1.25 mg/kg/injection, schedule: Q01DX015 (ip), vehicle: saline) 105 % of control and 112 % of control; (dose: 2.5 mg/kg/injection, schedule: Q01DX015 (ip), vehicle: saline) 103 % of control; (dose: 2.5 mg/kg/injection, schedule: Q04DX003 (ip), vehicle: saline) 101 % of control. Besides, the T/C runs as follows: (dose: 5.0 mg/kg/injection, schedule: Q01DX001 (ip), vehicle: saline) 94 % of control; (dose: 5.0 mg/kg/injection, schedule: Q01DX015 (ip), vehicle: saline) 111 % of control; (dose: 5.0 mg/kg/injection, schedule: Q04DX003 (ip), vehicle: saline) 95 % of control; (dose: 10.0 mg/kg/injection, schedule: Q01DX001 (ip), vehicle: saline) 96 % of control; (dose: 10.0 mg/kg/injection, schedule: Q01DX015 (ip), vehicle: saline) 110 % of control and 117 % of control; (dose: 10.0 mg/kg/injection, schedule: Q04DX003 (ip), vehicle: saline) 111 % of control. For the same compound, the T/C (dose: 20.0 mg/kg/injection, schedule: Q01DX001 (ip), vehicle: saline) is 102 % of control and the T/C (dose: 20.0 mg/kg/injection, schedule: Q04DX003 (ip), vehicle: saline) was 113 % of control.
In the case of `CCOC(=O)c1c2c(=O)n(C)c(=O)n(C)c2nc2c1c(=O)n(C)c(=O)n2C`, the T/C is 93 % of control under setting [9], 93 % of control under setting [10] and 86 % of control under setting [11].
With `CCC(=O)C(CCCCCCOc1ccc(OC)cc1Cl)C(=O)CC`, the T/C is 92 % of control under setting [4], 89 % of control under setting [6] and 87 % of control under setting [8].
`O=C(Cc1cnccn1)c1ccc(C(=O)Cc2cnccn2)cc1`: the T/C by setting is: (dose: 100.0 mg/kg/injection, schedule: Q04DX003 (ip), vehicle: carboxymethylcellulose (CMC)) 94 % of control; (dose: 200.0 mg/kg/injection, schedule: Q04DX003 (ip), vehicle: carboxymethylcellulose (CMC)) 103 % of control; (dose: 400.0 mg/kg/injection, schedule: Q04DX003 (ip), vehicle: carboxymethylcellulose (CMC)) 102 % of control.
As to `CCOC(=O)[C@H]1CCC[C@@H](NC(=O)N(CCCl)N=O)C1`, the T/C reads like this: (dose: 5.0 mg/kg/injection, schedule: Q01DX001 (ip), vehicle: other) 108 % of control; (dose: 10.0 mg/kg/injection, schedule: Q01DX001 (ip), vehicle: other) 123 % of control; (dose: 20.0 mg/kg/injection, schedule: Q01DX001 (ip), vehicle: other) 194 % of control; (dose: 31.0 mg/kg/injection, schedule: Q01DX001 (ip), vehicle: other) 329 % of control; (dose: 40.0 mg/kg/injection, schedule: Q01DX001 (ip), vehicle: other) 305 % of control; (dose: 62.0 mg/kg/injection, schedule: Q01DX001 (ip), vehicle: other) 254 % of control.
As to `C1COC2(OC1)OCCCO2`, the T/C is 108 % of control (dose: 100.0 mg/kg/injection, schedule: Q04DX002 (ip), vehicle: Klucel (hydroxypropylcellulose) (HPC)); 105 % of control (dose: 200.0 mg/kg/injection, schedule: Q04DX002 (ip), vehicle: Klucel (hydroxypropylcellulose) (HPC)); 105 % of control (dose: 400.0 mg/kg/injection, schedule: Q04DX002 (ip), vehicle: Klucel (hydroxypropylcellulose) (HPC)).
As for `Cc1cccc(Cl)c1NC1=NCCO1`, the T/C is 93 % of control (dose: 6.25 mg/kg/injection, schedule: Q01DX009 (ip), vehicle: saline with Tween-80); 102 % of control (dose: 12.5 mg/kg/injection, schedule: Q01DX009 (ip), vehicle: saline with Tween-80); 100 % of control (dose: 25.0 mg/kg/injection, schedule: Q01DX009 (ip), vehicle: saline with Tween-80).
For `CCOC(=O)c1cc(C)n(-c2ccc(C(=O)O)cc2)c1C`, the T/C is 97 % of control under setting [9]; 95 % of control under setting [10]; 98 % of control under setting [12]; 95 % of control under setting [11]; 91 % of control under setting [13].
In the case of `COC(=O)c1ccc([N+](=O)[O-])c(O)c1`, the T/C reads like this: under setting [10], 96 % of control; under setting [12], 96 % of control; under setting [11], 98 % of control; under setting [13], 100 % of control; (dose: 400.0 mg/kg/injection, schedule: Q01DX009 (ip), vehicle: Klucel (hydroxypropylcellulose) (HPC)) 88 % of control; (dose: 400.0 mg/kg/injection, schedule: Q04DX003 (ip), vehicle: Klucel (hydroxypropylcellulose) (HPC)) 102 % of control.
On to `CN1CCN(C(=O)C2CCCCC2C(=O)O)CC1` (centres undefined), for which the T/C runs as follows: under setting [1], 107 % of control; under setting [2], 107 % of control; under setting [3], 96 % of control.
Consider `CN(C)C(N)=S`, for which the T/C runs as follows: (dose: 100.0 mg/kg/injection, schedule: Q01DX009 (ip), vehicle: saline) 91 % of control; (dose: 200.0 mg/kg/injection, schedule: Q01DX009 (ip), vehicle: saline) 100 % of control; (dose: 400.0 mg/kg/injection, schedule: Q01DX009 (ip), vehicle: saline) 100 % of control.
With `CCC(C)C(CCCCN1CCCC1)(CNC(=O)CN(CC)CC)c1cccc2ccccc12` (centres undefined), the T/C is 95 % of control (dose: 12.5 mg/kg/injection, schedule: Q01DX009 (ip), vehicle: saline); 92 % of control (dose: 12.5 mg/kg/injection, schedule: Q04DX003 (ip), vehicle: saline); 101 % of control (dose: 25.0 mg/kg/injection, schedule: Q01DX009 (ip), vehicle: saline); 93 % of control (dose: 25.0 mg/kg/injection, schedule: Q04DX003 (ip), vehicle: saline); 106 % of control (dose: 50.0 mg/kg/injection, schedule: Q01DX009 (ip), vehicle: saline); 92 % of control (dose: 50.0 mg/kg/injection, schedule: Q04DX003 (ip), vehicle: saline).
On to `CN(C)P(=O)(N(C)C)N(C)C`, for which the T/C by setting is: (dose: 100.0 mg/kg/injection, schedule: Q01DX001 (ip), vehicle: saline) 101 % of control; (dose: 200.0 mg/kg/injection, schedule: Q01DX001 (ip), vehicle: saline) 98 % of control; (dose: 400.0 mg/kg/injection, schedule: Q01DX001 (ip), vehicle: saline) 102 % of control; (dose: 1:6400.0 dilution, schedule: Q01DX009 (ip), vehicle: saline) 107 % of control.
With `CCN(CC)CC(N)=O`, the T/C (dose: 100.0 mg/kg/injection, schedule: Q04DX003 (ip), vehicle: saline) is 103 % of control; the T/C (dose: 200.0 mg/kg/injection, schedule: Q04DX003 (ip), vehicle: saline) was 103 % of control; the T/C (dose: 400.0 mg/kg/injection, schedule: Q04DX003 (ip), vehicle: saline) is 111 % of control.
